In patent publication US20250346613A1, “BORIC ACID PROTEASOME INHIBITOR AND USE THEREOF” (ARTIVILA BIOPHARMA, priority 2022, published 2025):

Legend:
Format in all cases: cell-based
[1] = target: T1, β5c subunit of the 20S proteasome (Homo sapiens, UniProt P20618+P28074); assay: Proteasome inhibitory activity, β5c subunit (Raji cells treated with compound, lysed, Suc-LLVY-AMC substrate); settings: proteasome from Raji cells incubated with compound 4 h
T1 construct: The proteasome tested in the present disclosure was derived from Raji cells; endogenous in cells; host or cells: Raji cells
Excerpt: (§1) In the present disclosure, the fluorescent peptide substrate Ac-Ala-Asn-Trp-AMC (abbreviated as Ac-ANW-AMC) and the […] kit containing a fluorescent peptide substrate Suc-Leu-Leu-Val-Tyr-AMC (abbreviated as Suc-LLVY-AMC) (Promega, Item No. G8660) were used to detect the activities of the β5i subunit and β5c subunit of the 20S proteasome, respectively.
(§2) The proteasome tested in the present disclosure was derived from Raji cells, the fluorescent substrate Ac-ANW-AMC was purchased from Roche company, and other reagents were purchased from Sigma company. The experimental system was divided into two parts of cell lysis system and enzyme reaction system. […] The starting concentration of the compound (inhibitor) was 1 μM. It was diluted in a 3-fold serial dilution to a total of 8 concentrations, that is, the administration concentration can be 1 μM, 0.333 μM, 0.111 μM . . . , respectively, and the specific experimental process was described below.
(§3) Raji cells (1×10^6 cells) cryopreserved in liquid nitrogen were thawed rapidly in a water bath at 37° C. The cell pellet was transferred to a 15 mL centrifuge tube, added with 9 mL of fresh medium (Gibco RPMI1640 added with 10% fetal bovine serum and 1% double antibiotics), centrifuged at 120 g for 5 min, inoculated to 25 mL cell culture flasks, and passaged once every 2-3 days.
(§4) The compound was weighed and dissolved in DMSO to a concentration of 10 mM. The compound was then sequentially diluted to concentrations of 200 μM, 66.67 μM, 22.22 μM, 7.41 μM, 2.47 μM, 0.82 μM, 0.27 μM, and 0.091 μM with fresh medium. Raji cells in a good growth status were inoculated into a 48-well cell culture plate at 7×10^5 cells/mL.
(§5) Raji cells in a good growth status were taken and counted. They were then inoculated to a 48-well cell culture plate at 7×10^5 cells/mL. Each 5 μL of the various concentrations of diluted compounds above were taken and added to the culture plate inoculated with cells, and the lowest concentration of compound was 0 μM. The drug bortezomib (Velcade) and ONX-0914 were used as the positive control compounds. All cells were incubated at 37° C. for 4 h.
(§6) The compound-treated cells were sequentially transferred into 1.5 mL centrifuge tubes, centrifuged at 10000 rpm for 2 min, and the supernatants were removed. The cell pellet was resuspended in 1 mL of PBS, centrifuged at 10000 rpm for 2 min, and the supernatant was removed. Cells were resuspended by adding 100 μL of cell lysate (50 mM Tris of pH 7.5, 150 mM NaCl, 5 mM MgCl2, 5 mM ATP, 1 mM DTT, 0.01% NP-40, 1 mM Digitonin, and Cocktail), placed in an ice bath for 30 min, and centrifuged at 13000 rpm for 10 min.
(§7) 2 mg of fluorescent peptide substrate AC-ANW-AMC was dissolved in 424.7 μL of DMSO to obtain an 8 mM stock solution, and stored at −20° C. The stock solution was diluted 100-fold to a final concentration of […] for use in the reaction system. The fluorescent peptide substrate Suc-LLVY-AMC was prepared according to the instructions of the Promega kit.
(§8) Each 20 μL of the prepared proteasome solution above was added to a 96-well white luciferase microplate and added with 25 μL of AC-ANW-AM substrate buffer solution (50 mM Tris of pH 7.5, 150 mM NaCl, 5 mM MgCl2, 5 mM ATP, 80 uM Ac-ANW-AMC and 1 mM DTT) and 25 μL of Suc-LLVY-AMC substrate buffer solution for 10 min of reaction at 37° C. in the dark. Fluorescence values were read at 345 nm/445 nm by using a fluorence microplate reader.
(§9) The data were exported and the inhibition rate in percentage was calculated according to the following formula: Inhibition rate=(maximum signal value-compound signal value)/(maximum signal value−blank signal value)×100%.
(§10) Where the maximum signal was obtained from cell lysates treated with DMSO only, and the blank signal was obtained from wells containing only lysates.

[2] = test system: MM.1S cell strain; assay: Inhibitory activity of cell strain (CellTiter-Glo); settings: Homo sapiens, MM1.S, 72 h incubation
Protocol: The cells used in this experiment were MM.1S cell strain and the detection reagent was CellTiter-Glo (Promega). […] The experimental process was described below. MM.1S cells in the logarithmic growth phase and in a good status were digested into individual cells by trypsin, centrifuged to remove the supernatant, and counted. Cells were diluted and 100 μL of cell suspension per well was added to a 96-well enzyme-coated plate at 1×10^5 cells per well. The wells containing only RPMI1640 complete medium were set as blank control. The 96-well plate was transferred to a 37° C. incubator containing 5% CO2 for 24 h of incubation.
The compound was accurately weighed and dissolved in DMSO to a concentration of 10^−2 M. 10 μL of compound was pipetted to 190 μL of DMSO to given a 5×10^−4 M compound. 6 μL of the compound (5×10^−5 M) was pipetted to a new 96-well microplate containing 194 μL of RPMI1640 complete medium and diluted in a 3-fold gradient dilution. 50 μL of the diluted compound was transferred to the 96-well microplate containing the cells such that the final compound concentrations were 5×10^−7 M, 1.67×10^−7 M, 5.55×10^−8 M, 1.85×10^−8 M, 6.17×10^−9 M, 2.06×10^−9 M, 6.86×10^−10 M, 2.29×10^−10 M, and 0 M. For the 0 M, no compound was added, and the same concentration of DMSO was added. The marketed drug bortezomib was used as a positive control. The 96-well microplate added with compounds was placed in the 37° C. incubator for 72 h of incubation.
At the predetermined detection time, the 96-well microplate to be detected was placed at room temperature, added with 40 μL of detection reagent (CellTiter-Glo) per well, and covered with a dark lid or piece of aluminium foil. The contents were mixed on an orbit oscillator for 10 min for complete cell lysis, with a vibration speed of 150 rpm. Luminescence values were detected on a multifunctional microplate reader (BioTek Synergy H1 Hybrid Multi-Mode Reade).
The data were exported and the percentage inhibition was calculated according to the following formula: Inhibition rate=(maximum signal value-compound signal value)/(maximum signal value−blank signal value)×100%, • wherein maximum signal was obtained from alone DMSO-treated cells, and blank signal was obtained from wells containing only culture medium.

[3] = target: T2, β5i subunit of the 20S proteasome (Homo sapiens, UniProt P20618+P28062); assay: Proteasome inhibitory activity, β5i subunit (Raji cells treated with compound, lysed, Ac-ANW-AMC substrate); settings: proteasome from Raji cells incubated with compound 4 h
T2 construct: The proteasome tested in the present disclosure was derived from Raji cells; endogenous in cells; host or cells: Raji cells
Excerpt: as §1, §2, §3, §4, §5, §6, §7, §8, §9, §10

Row | Compound | IC50 [1] [nM] | IC50 [2] [nM] | IC50 [3] [nM]
1 | CC(C(=O)NCc1cccc(-c2ccccc2)n1)C(=O)N[C@@H](Cc1ccccc1)B(O)O (stereo partly drawn) [Example 1, ((1R)-1-(2-methyl-3-oxo-3-(((6-phenylpyridin-2-yl)methyl)amino)propionylamino)-2-phenylethyl)boric acid] | 50 to 200 | 50 to 200 | 50 to 200
2 | COc1cccc(CNC(=O)C(CC2CC2)C(=O)N[C@@H](Cc2ccccc2)B(O)O)c1 (stereo partly drawn) [Example 3, ((1R)-1-(2-(cyclopropylmethyl)-3-((3-methoxybenzyl)amino)-3-oxopropionylamimo)-2-phenylethyl)boric acid] | ≤ 50 | ≤ 50 | ≤ 50
3 | O=C(/C=C/C(=O)N[C@@H](Cc1ccccc1)B(O)O)Nc1ccccc1 [Example 8] | – | 50 to 200 | 50 to 200
4 | COc1cccc(CNC(=O)C(C)C(=O)N[C@@H](Cc2coc3ccccc23)B(O)O)c1 (some centres unmarked) [Example 9] | ≤ 50 | ≤ 50 | ≤ 50
5 | Cc1ccc(CNC(=O)/C=C/C(=O)N[C@@H](Cc2ccc(C)cc2)B(O)O)cc1 [Example 10] | 50 to 200 | 200 to 500 | 50 to 200
6 | CC(C)C[C@H](NC(=O)/C=C/C(=O)NCc1cccc(-c2ccccc2)n1)B(O)O [Example 13, (R,E)-(3-methyl-1-(4-oxo-4-(((6-phenylpyridin-2-yl)methyl)amino)but-2-enamido)butyl)boric acid] | 50 to 200 | 50 to 200 | 50 to 200
7 | O=C(/C=C/C(=O)N[C@@H](Cc1ccccc1)B(O)O)NCc1cccc(-c2ccccc2)n1 [Example 14, (R,E)-(1-(4-oxo-4-(((6-phenylpyridin-2-yl)methyl)amino)but-2-enamido)-2-phenylethyl)boric acid] | 50 to 200 | 50 to 200 | 50 to 200
8 | O=C(CCC(=O)N[C@@H](Cc1ccccc1)B(O)O)NCc1ccccc1 [Example 16, (R)-(1-(4-(benzylamino)-4-oxobutanoylamino)-2-phenylethyl)boric acid] | 50 to 200 | 200 to 500 | ≤ 50
9 | O=C(CC(=O)N[C@@H](Cc1coc2ccccc12)B(O)O)NCc1cccc(-c2ccccc2)c1 [Example 22, (R)-(1-(3-(([1,1′-biphenyl]-3-ylmethyl)amino)-3-oxopropionamido)-2-(benzofuran-3-yl)ethyl)boric acid] | ≤ 50 | ≤ 50 | ≤ 50
10 | Cc1ccc(C[C@H](NC(=O)CC(=O)NCc2cccc(-c3ccccc3)c2)B(O)O)cc1 [Example 27, (R)-(1-(3-(([1,1′-biphenyl]-3-ylmethyl)amino)-3-oxopropionamido)-2-(p-tolyl)ethyl)boric acid] | ≤ 50 | ≤ 50 | ≤ 50
11 | CC(C)C[C@H](NC(=O)C(C)C(=O)NCc1ccccc1)B(O)O (stereo partly drawn) [Example 28, ((1R)-1-(3-(benzylamino)-2-methyl-3-oxopropionamido)-3-methylbutyl)boric acid] | 50 to 200 | 50 to 200 | 50 to 200
12 | CC(C(=O)NCc1ccccc1)C(=O)N[C@@H](Cc1ccccc1)B(O)O (stereo partly drawn) [Example 29, ((1R)-1-(3-(benzylamino)-2-methyl-3-oxopropionamido)-2-phenylethyl)boric acid] | ≤ 50 | 50 to 200 | ≤ 50

Next, values leading:

Row | IC50 [1] [nM] | IC50 [2] [nM] | IC50 [3] [nM] | Compound
13 | ≤ 50 | ≤ 50 | ≤ 50 | COc1cccc(CNC(=O)C(C)C(=O)N[C@@H](Cc2ccc(-c3ccccc3)cc2)B(O)O)c1 (stereo partly drawn) [Example 36, ((1R)-2-([1,1′-biphenyl]-4-yl)-1-(3-((3-methoxybenzyl)amino)-2-methyl-3-oxopropionamido)ethyl)boric acid]
14 | 50 to 200 | 200 to 500 | 50 to 200 | Cc1ccc(C[C@H](NC(=O)C(C)C(=O)NCc2ccccc2)B(O)O)cc1 (stereo partly drawn) [Example 38, ((1R)-1-(3-(benzylamino)-2-methyl-3-oxopropionamido)-2-(p-tolyl)ethyl)boric acid]
15 | 50 to 200 | 50 to 200 | ≤ 50 | Cc1ccc(C[C@H](NC(=O)C(C)C(=O)Nc2ccccc2)B(O)O)cc1 (stereo partly drawn) [Example 40, ((1R)-1-(2-methyl-3-oxo-3-(phenylamino)propionamido)-2-(p-tolyl)ethyl)boric acid]
16 | 50 to 200 | 50 to 200 | ≤ 50 | CC(C)C[C@H](NC(=O)C(C)C(=O)NC1CCCCC1)B(O)O (stereo partly drawn) [Example 41, ((1R)-1-(3-(cyclohexylamino)-2-methyl-3-oxopropionamido)-3-methylbutyl)boric acid]
17 | ≤ 50 | 50 to 200 | ≤ 50 | Cc1ccc(C[C@H](NC(=O)C(C)C(=O)NC2CCCCC2)B(O)O)cc1 (stereo partly drawn) [Example 42, ((1R)-1-(3-(cyclohexylamino)-2-methyl-3-oxopropionamido)-2-(p-tolyl)ethyl)boric acid]
18 | ≤ 50 | ≤ 50 | ≤ 50 | COc1cccc(CNC(=O)C(C)C(=O)N[C@@H](Cc2ccc(C)cc2)B(O)O)c1 (stereo partly drawn) [Example 43, ((1R)-1-(3-((3-methoxybenzyl)amino)-2-methyl-3-oxopropionamido)-2-(p-tolyl)ethyl)boric acid]
19 | ≤ 50 | ≤ 50 | ≤ 50 | O=C(CC(=O)N[C@@H](Cc1ccccc1)B(O)O)NCc1cccc(-c2ccccc2)c1 [Example 44, (R)-(1-(3-(([1,1′-biphenyl]-3-ylmethyl)amino)-3-oxopropionamido)-2-phenylethyl)boronic acid]
20 | ≤ 50 | ≤ 50 | ≤ 50 | Cc1ccc(C[C@H](NC(=O)C(C)C(=O)NCc2cccc(-c3ccccc3)n2)B(O)O)cc1 (stereo partly drawn) [Example 45, ((1R)-1-(2-methyl-3-oxo-3-(((6-phenylpyridin-2-yl)methyl)amino)propionamide)-2-(p-tolyl)ethyl)boric acid]
